PMC10890530, “Meirols A–C: Bioactive Catecholic Compounds from the Marine-Derived Fungus Meira sp. 1210CH-42” (Marine Drugs, 2024)
Read-outs that look alike come from different tables or passages of the source.

Key:
[1] = tested on: RPMI-8402, T cell acute lymphocytic leukemia; experiment: Cytotoxicity assay, RPMI-8402 blood cancer cell line; format: cell-based; conditions: Homo sapiens, 50% growth inhibitory concentration, triplicate, read-out: Cytotoxic Activity (GI50 ± SD, μM) RPMI-8402
Protocol: (§1) NMR spectra were acquired with a Bruker AVANCE III 600 spectrometer (Bruker Biospin GmbH, Rheinstetten, Germany) with a 3 mm probe operating at 600 MHz (^1H) and 150 MHz (^13C). Chemical shifts were expressed in ppm with reference to the solvent peaks (δH 3.31 and δC 49.15 ppm for CD3OD). UV spectra were recorded with a Shimadzu UV-1650PC spectrophotometer (Shimadzu Corporation, Kyoto, Japan). IR spectra were obtained on an OPUS FT/IR-ALPHA II spectrophotometer (Bruker OPTIK GmbH & Co. KG, Ettlingen, Germany). Optical rotations were measured with a Rudolph analytical Autopol III S2 polarimeter (Rudolph Research Analytical, Hackettstown, NJ, USA). LR-ESIMS data were obtained with an ISQ EM mass spectrometer. HR-ESIMS data were obtained with a Waters SYNPT G2 Q-TOF mass spectrometer (Waters Corporation, Milford, MA, USA) at the Korea Basic Science Institute (KBSI) in Cheongju, Republic of Korea. ECD spectra were recorded with a JASCO J-1500 circular dichroism spectrometer (JASCO Corporation, Tokyo, Japan) at the Center for Research Facilities, Changwon National University, in Changwon, Republic of Korea. HPLC was performed using a BLS-Class pump (Teledyne SSI, Inc., State College, PA 16803, USA) with a Shodex RI-201H refractive index detector (Shoko Scientific Co., Ltd., Yokohama, Japan). Columns for HPLC were YMC-Triart C18 (250 mm × 10 mm, 5 μm), YMC-Triart C8 (250 mm × 10 mm, 5 μm), and YMC-CHIRAL PREP CD PM (250 mm × 4.6 mm, S-10 μm). RP silica gel (YMC-Gel ODS-A, 12 nm, S-75 μm) was used for open-column chromatography. Organic solvents were purchased as HPLC grade, and ultrapure waters were obtained from the Milipore Mili-Q Direct 8 system. The reagents used in the bioassay were purchased from Sigma-Aldrich and Tokyo Chemical Industry. Cancer cell lines were purchased from the Japanese Cancer Research Resources Bank (JCRB) (NUGC-3, JCRB Cell Bank/Cat. # JCRB0822), the DSMZ-German Collection of Microorganisms and Cell Cultures (RPMI-8402, DSMZ/Cat # ACC 290; WSU-DLCL2, DSMZ/Cat # ACC 575), and the American Type Culture Collection (ATCC) (PC-3, ATCC/Cat. # CRL-1435; MDA-MB-231, ATCC/Cat. # HTB-26; ACHN, ATCC/Cat. # CRL-1611; NCI-H23, ATCC/Cat. # CRL-5800; HCT-15, ATCC/Cat. # CCL-225; HL-60, ATCC/Cat. # CCL-240; Raji, ATCC/Cat # CCL-86; K562, ATCC/Cat # CCL-243; NALM6, ATCC/Cat # CRL-3273; U266, ATCC/Cat # TIB-196).
(§2) The cytotoxic activities of 1–4 were measured using the CellTiter-Glo luminescent cell viability assay (Promega, Madison, WI, USA) and conducted by the […], as previously described. The luminescence signal was quantified using a GloMax-Multi Detection System (Promega, Madison, WI, USA), and GI50 values were determined utilizing a relative GI50 model in GraphPad Prism (GraphPad, San Diego, CA, USA). Doxorubicin was used as the positive control.

[2] = tested on: NALM6, B cell acute lymphocytic leukemia; experiment: Cytotoxicity assay, NALM6 blood cancer cell line; format: cell-based; conditions: triplicate, read-out: Cytotoxic Activity (GI50 ± SD, μM) NALM6
Protocol: as §1, §2

[3] = DPPH radical scavenging activity assay; conditions: half maximal effective concentration; triplicate; read-out: DPPH Radical Scavenging Activity (EC50 ± SD)
Protocol: The DPPH radical scavenging activities of 1–4 were determined by the reported method. In a 96-well plate, 100 μL of sample solution (in MeOH) was mixed with 100 μL of DPPH solution (0.16 mM in MeOH), shaken several times, and then incubated at room temperature for 30 min. The absorbance at 517 nm was recorded. Ascorbic acid was used as the positive control, and the experiments were performed in triplicate.

[4] = target: α-glucosidase; experiment: α-glucosidase inhibitory activity assay (pNPG hydrolysis); format: biochemical; conditions: 50% inhibitory concentration; triplicate; read-out: α-Glucosidase Inhibitory Activity (IC50 ± SD)
Protocol: The α-glucosidase inhibitory activity was determined by measuring the absorbance increase resulting from the hydrolysis of p-nitrophenyl-α-D-glucopyranoside (pNPG, TCI) by α-glucosidase at 405 nm using a microplate reader, according to the reference to previously reported literature. The 130 μL sample solution (in 0.1 mM PBS) with the 30 μL α-glucosidase solution (0.2 U/mL) was incubated at 37 °C for 10 min. Subsequently, 40 μL of 5 mM pNPG was added. The reaction mixture was further incubated at 37 °C for 20 min. The α-glucosidase inhibitory activity was determined using a microplate reader at 405 nm. The negative control was prepared by substituting PBS buffer for the sample in the same way as the test.

[5] = Homo sapiens, NALM-6, 50% growth inhibitory concentration
[6] = 50% growth inhibitory concentration

SMILES | EC50 [3] [µM] | IC50 [4] [µM] | GI50 [1] [µM] | GI50 [2, 5] [µM] | GI50 [2, 6] [µM]
COc1cccc2c1C(=O)c1c(O)c3c(c(O)c1C2=O)C[C@@](O)(C(=O)CO)C[C@@H]3O[C@H]1C[C@H](N)[C@H](O)[C@H](C)O1 [Doxorubicin, reference compound] | – | – | 0.015 ± 0.0013 | 0.003 ± 0.0006 | –
O=C1c2ccc(O)c(O)c2C[C@@H]1O [Compound 4, meirol C] | 6.2 ± 0.12 | > 555 | > 30 | > 30 | –
O=C1O[C@H]([C@@H](O)CO)C(O)=C1O [Ascorbic acid, reference compound] | 7.81 ± 0.25 | – | – | – | –
O=C1C[C@@H](O)c2c1ccc(O)c2O [Compound 3, meirol B] | 6.01 ± 0.07 | 367.4 ± 3.01 | > 30 | > 30 | –

Continued, in another order:

EC50 [3] [µM] | IC50 [4] [µM] | SMILES | GI50 [1] [µM] | GI50 [2, 5] [µM] | GI50 [2, 6] [µM]
6.82 ± 0.06 | 199.7 ± 1.87 | O=C1NCc2c1ccc(O)c2O [Compound 2, 4,5-dihydroxyisoindolin-1-one] | > 30 | 29.4 | 29.6 ± 2.27
7.47 ± 0.13 | 184 ± 2.93 | O=C1CCc2c1ccc(O)c2O [Compound 1, 4,5-dihydroxyindan-1-one] | 21 ± 0.47 | 9.48 | 9.47 ± 0.41
